In patent publication US9238643B2, “Amide compounds” (Guangzhou Institutes of Biomedicine and Health, Chinese …, priority 2010, dated 2016):

Test system: IL-1β secretion of BV2
Assay: Inhibition of LPS-induced IL-1β secretion of BV2 microglial cells (ELISA)
Type: cell-based
Conditions: BV-2, 24 hours; for IC50: BV2 cells, 300 ng/ml LPS induction, IL-1β by ELISA, read-out: IC50 of inhibition of the compounds of the present application to IL-1β secretion of BV2; for inhibition at 0.02 µM: Mus musculus, IL-1β secretion of BV2, compound concentration 20 nM, LPS induction, read-out: Inhibition rate (%) at 20 nM
Procedure: 1. […] microglial cell BV2 and Glioma cell line C6 are incubated in DMEM culture medium with 10% FBS, and the 6th to 15th generation culture cells are applicable for compound activity selection. Culture cells are innoculated on the 24-well cell culturing plate with 50,000 cells/well, after one day culturing, switch to low serum medium (with 2% FBS) for another 16 hours culturing. Add 300 ng/ml (for induction of BV2 cells) or 1 mg/mL (for induction of C6 cells) LPS (Salmonella typhimutium) to the culture medium to induce the IL-1β secretion of culture cells. At the same time, add sample to be determined (with DMSO≦0.1%) at concentrations of 200 pM, 20 nM, 2 μM and 200 μM; add 0.1% DMSO to blank as solvent control.
2. 24 hours after LPS induction/drug treatment, collect the culture solution and quantitatively measure the level of IL-1β. Centrifuge the culture solution at 8,000 g for 10 min at 4° C., and remove the floating particle impurities. Dilute the supernant one time, and take 150 μL sample for ELISA (Biosource) measurement.
3. Treatment of culture cells and ELISA measurement are conducted with double blind method.
4 Inhibition efficiency of candidate compound is calculated according to formula, and IC50 of every kind of candidate compound is calculated. Inhibition efficiency(%)=([IL-1β]LPS induction−[IL-1β]medical treatment)/[IL-1β]LPS induction×100%. Formula
5. Efficiency evaluation of candidate compound: positive inhibition rate of compound to IL-1β secretion of BV2 is the standard judgment of compounds efficiency; negative inhibition rate of compound to IL-1β secretion of C6 is the standard judgment of compounds safety.

## Cc1cc(-c2ccccc2)nnc1C(=O)N1CCN(c2ccc(F)cc2)CC1 [Compound 4, (4-(4-fluorophenyl)piperazinyl) (4-methyl-6-phenylpyridazinyl) ketone]
  IC50: 0.56 nM
  inhibition at 0.02 µM: 54.6%

## Cc1cc(-c2ccccc2)nnc1C(=O)N1CCN(c2ncccn2)CC1 [Compound 5, (2-pyrimidylpiperazinyl)(4-methyl-6-phenylpyridazinyl)ketone]
  IC50: 0.6 nM
  inhibition at 0.02 µM: 54.5%

## O=C(c1nc(-c2ccccc2)nc2ccccc12)N1CCN(c2ccc(F)cc2)CC1 [Compound 11, (4-(4-fluorophenyl)piperazinyl) (2-phenylquinazolinyl) ketone]
  IC50: 3.38 nM

## O=C(c1nc(-c2ccccc2)nc2ccccc12)N1CCN(c2ncc(F)cn2)CC1 [Compound 12, (4-(5-fluoropyrimid-2-yl)piperazinyl)(2-phenylquinazolinyl) ketone]
  IC50: 1.42 nM

## O=C(c1nc(-c2ccccc2)nc2ccccc12)N1CCN(c2ncccn2)CC1 [Compound 12a, (4-(pyrimid-2-yl)piperazinyl) (2-phenylquinazolinyl) ketone]
  IC50: 0.16 nM
  inhibition at 0.02 µM: 46.1%

## O=C(c1nc(-c2ccccc2)nc2ccccc12)N1CCN(c2ccccn2)CC1 [Compound 13, (4-(2-pyridinyl)piperazinyl)(2-phenylquinazolinyl)ketone]
  IC50: 24.3 nM

## O=C(c1n[nH]c2c(F)ccc(F)c12)N1CCN(c2ccc(F)cc2)CC1 [Compound 20, (4-(4-fluorophenyl)piperazinyl) (4,7-difluoroindazol-3-yl) ketone]
  IC50: 42.5 nM
  inhibition at 0.02 µM: 48.06 ± 0.0618%

## Cc1cc(-c2ccccc2)nnc1C(=O)N1CCN(c2ncc(F)cn2)CC1 [Compound 24]
  IC50: 5.49 nM

## Cc1cc(-c2ccccc2)nnc1C(=O)N1CCN(C)CC1 [Compound 26, (N-methylpiperazinyl) (4-methyl-6-phenylpyridazinyl) ketone]
  IC50: 0.11 nM
